Where two headings read alike, the source gives them in different places.
Legend:
[1] = target: T1, PBP3 from Escherichia coli (Escherichia coli, UniProt P0AD68); test: Fluorescence polarization competition binding assay with Bocillin-FL
T1 construct: made in house
Outline: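 Fluorescence polarization competition assay with Bocillin-FL at 0.1 μM final and purified E. coli PBP3 at 1.5 μM final in 50 mM Hepes pH 8.0, 300 mM NaCl, 5% glycerol. Inhibitor preincubated with PBP3 for 30 min before probe addition; FP then read continuously for 60 min. Potency reported in binned categories.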

[2] = target: T2, PBP1a from Escherichia coli (Escherichia coli, UniProt P02918); test: Radioligand competition binding assay with 14C-labeled boronic acid probe (Example 96)
T2 construct: made in house
T2 sequence (P02918 whole entry): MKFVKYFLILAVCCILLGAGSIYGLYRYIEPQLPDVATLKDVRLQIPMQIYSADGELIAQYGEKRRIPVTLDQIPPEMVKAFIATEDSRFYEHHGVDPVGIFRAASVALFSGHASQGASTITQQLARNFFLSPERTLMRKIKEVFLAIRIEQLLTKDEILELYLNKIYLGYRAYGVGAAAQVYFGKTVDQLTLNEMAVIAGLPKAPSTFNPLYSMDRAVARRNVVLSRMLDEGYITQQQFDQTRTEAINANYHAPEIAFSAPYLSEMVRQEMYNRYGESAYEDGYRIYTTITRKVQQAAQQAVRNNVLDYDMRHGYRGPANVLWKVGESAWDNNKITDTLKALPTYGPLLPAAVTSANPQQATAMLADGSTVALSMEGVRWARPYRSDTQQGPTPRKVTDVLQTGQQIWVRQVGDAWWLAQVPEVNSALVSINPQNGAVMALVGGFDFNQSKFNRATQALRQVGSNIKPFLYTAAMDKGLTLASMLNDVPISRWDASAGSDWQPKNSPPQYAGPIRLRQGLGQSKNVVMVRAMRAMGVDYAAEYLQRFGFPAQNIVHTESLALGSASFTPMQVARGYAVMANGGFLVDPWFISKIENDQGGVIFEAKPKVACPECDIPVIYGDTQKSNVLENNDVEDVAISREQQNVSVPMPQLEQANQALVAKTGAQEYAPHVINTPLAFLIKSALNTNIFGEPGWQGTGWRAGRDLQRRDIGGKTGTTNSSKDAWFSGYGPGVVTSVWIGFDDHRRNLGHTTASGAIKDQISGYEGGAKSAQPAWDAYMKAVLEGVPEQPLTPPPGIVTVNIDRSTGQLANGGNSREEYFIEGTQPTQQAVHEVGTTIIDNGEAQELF
Excerpt: (§1) To determine the ability of boronic acid-based test PBP inhibitors to bind Penicillin Binding Proteins (PBPs), a radio-labelled boronic acid PBP inhibitor (Example 96) was used in competition binding assays to determine boronic acid PBP inhibitor binding to PBP1a or PBP1b from Escherichia coli. PBP1a and PBP1b were purified as described previously (Bertsche, U.; et al., J. Biol. Chem. 2005, 280 (45), 38096-38101; Born, P.; et al., J Biol. Chem. 2006. 281 (37), 26985-26993). To establish assay conditions for competition binding, an enzyme titration/saturation binding experiment was performed. Saturation binding was performed in a buffer comprised of 20 mM Tris (pH 7.5), 500 mM NaCl and 0.1% (v/v) TritonX-100, with PBP1a/PBP1b at a final concentration of 0.1 μM and 96 at final concentrations ranging from 0-100 μM. Mixtures were incubated for 60 minutes, then applied to Zeba Spin Desalting columns or plates (ThermoFisher Scientific) and centrifuged at 1000-1500×g for 2 minutes. The flow through, containing PBP bound with 96, was recovered and 100 μL mixed with 5 mL of UltimaGold liquid scintillation cocktail (Perkin Elmer), and the radioactivity counted using a Beckman Coulter LS 6500 Multipurpose scintillation counter. PBP binding of 96 approached saturation at 20 μM of ^14C-labeled probe. The competition binding assay was validated using the beta-lactam ampicillin, with 96 at a final concentration of 20 μM, PBP1a/PBP1b at a final concentration of 0.1 μM. PBP1a/PBP1b was incubated with ampicillin in a 96-well microplate for 60 minutes, then 96 was added and the mixtures incubated for an additional 60 minutes. The mixtures were then applied to Zeba Spin desalting plates and centrifuged at 1000×g for 2 minutes. The flow through was recovered and 100 μl mixed with 5 ml of UltimaGold liquid scintillation cocktail and the radioactivity counted. Ampicillin inhibited binding of 96 with an EC50 (the concentration of inhibitor required to reduce binding of 96 by 50%) of less than 0.5 μM. Binding assays with boronic acid PBP inhibitors were performed in an identical fashion. The potency of boronic acid PBP inhibitors was reported as the EC50 value.
(§2) Representative results are shown in Table 5, where A represents a potency of >100 μM, B represents a potency between 10 μM and 100 μM inclusive, and C represents a potency of <10 μM. NT=Not Tested.

[3] = target: T3, PBP1b from Escherichia coli (Escherichia coli, UniProt P02919); test: as above
T3 construct: made in house
T3 sequence (P02919 whole entry): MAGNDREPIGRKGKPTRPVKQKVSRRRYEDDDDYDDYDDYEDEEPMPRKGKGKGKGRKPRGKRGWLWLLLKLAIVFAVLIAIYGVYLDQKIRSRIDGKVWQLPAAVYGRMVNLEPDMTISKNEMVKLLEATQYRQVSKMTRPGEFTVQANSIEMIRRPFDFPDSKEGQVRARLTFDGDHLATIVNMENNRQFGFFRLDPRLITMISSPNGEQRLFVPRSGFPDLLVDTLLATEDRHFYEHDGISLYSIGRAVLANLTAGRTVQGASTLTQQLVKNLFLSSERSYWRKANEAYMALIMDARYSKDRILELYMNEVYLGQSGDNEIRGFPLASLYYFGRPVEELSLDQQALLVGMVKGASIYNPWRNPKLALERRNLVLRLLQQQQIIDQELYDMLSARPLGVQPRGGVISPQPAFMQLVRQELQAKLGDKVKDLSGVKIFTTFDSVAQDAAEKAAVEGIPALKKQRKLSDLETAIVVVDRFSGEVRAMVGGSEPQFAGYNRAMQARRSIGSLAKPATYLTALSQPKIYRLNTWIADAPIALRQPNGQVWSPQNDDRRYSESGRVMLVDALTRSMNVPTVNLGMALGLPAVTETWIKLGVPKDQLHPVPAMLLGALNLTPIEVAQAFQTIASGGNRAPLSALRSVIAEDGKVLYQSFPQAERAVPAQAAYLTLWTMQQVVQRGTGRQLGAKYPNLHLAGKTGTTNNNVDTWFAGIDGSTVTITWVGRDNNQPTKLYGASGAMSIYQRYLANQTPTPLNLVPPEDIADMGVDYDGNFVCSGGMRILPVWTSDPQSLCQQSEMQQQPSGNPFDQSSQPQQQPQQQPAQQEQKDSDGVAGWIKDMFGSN
Excerpt: as §1, §2

[4] = target: T1, PBP3 from Escherichia coli; test: Competition binding assay using Bodipy-FL boronic acid probe (Example 95); details: PBP3 3 μM, read-out: E. coli K12 PBP3 Potency
Method: PBP3 from Escherichia coli was cloned and purified as described previously (King, D. T, et al., ACS Infectious Diseases 2015, 1, 175-184). To establish assay conditions for competition binding, an enzyme titration/saturation binding experiment was performed. […] FP was measured immediately upon addition of PBP3 (Ex, Em), using a Cytation3 (BioTek) microplate reader and measured continuously for 60 minutes. […] The competition binding assay was validated using the beta-lactam ampicillin, with Bocillin-FL at a final concentration of 0.1 μM, PBP3 at a final concentration of 1.5 μM and concentrations of ampicillin from 0-1000 μM. […] Binding assays for boronic acid PBP inhibitors were performed in an identical fashion. Representative results are shown in Table 3, where A represents a potency of >500 μM, B represents a potency between 30 μM and 500 μM inclusive, and C represents a potency of <30 μM. NT=Not Tested.
The method described in Example II was adapted to use a Bodipy-labeled boronic acid PBP inhibitor (Example 13 or Example 95) to assess PBP3 potency of boronic acid PBP inhibitors. The method is identical to that described in Example II for the Bocillin-FL competition binding assay, with the following exceptions: PBP3 from Escherichia coli is used at a final concentration of 3 μM. […]

[5] = test system: E. coli DH5α/pLBII-CTX-M15; test: Broth microdilution MIC assay, engineered strain producing CTX-M15; format: cell-based, Escherichia coli; details: Escherichia coli, read-out: E. coli DH5α/pLBII-CTX-M15 Microbiological Activity (MIC)
Outline: (§3)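 CLSI broth microdilution in cation-supplemented Mueller-Hinton broth, 2-fold compound dilutions, 5×10^5 CFU/mL inoculum, 16-20 h at 37° C, MIC read visually as lowest concentration without growth. E. coli DH5α carries CTX-M15 on pLBII under Lac promoter, or empty pLBII as control.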

S. aureus ATCC 29213 = test: Broth microdilution MIC assay; format: cell-based; details: Staphylococcus aureus, ATCC29213; broth microdilution, 16-20 hours at 37° C.; read-out: S. aureus 29213 MIC
Outline: (§4)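 Per CLSI: log-phase cultures (3-5 h, 37° C) seeded at 5×10^5 CFU/mL into cation-supplemented Mueller-Hinton broth containing 2-fold compound dilutions. After 16-20 h at 37° C, MIC taken visually as lowest growth-free well, for S. aureus ATCC 29213 and E. coli 901C.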

[6] = test system: hyper-permeable E. coli 901C; test: Broth microdilution MIC assay; format: cell-based; details: Escherichia coli, read-out: E. coli 901C MIC
Outline: as §4

E. coli PBP1b = test: Bocillin FL competition binding assay (SDS-PAGE gel, membrane PBPs); parameters: species or system Escherichia coli; details: 15 min. pre-incubation, membrane protein extracts, SDS-PAGE fluorescence scan
Method: (§5) To determine the ability of test compounds to bind Penicillin Binding Proteins (PBPs), a competition binding assay using Bocillin FL (fluorescent derivative of penicillin V) was adapted from the classical method used to assess PBP potency of beta-lactams.
Penicillin binding proteins were isolated from Escherichia coli K12 by growth of Escherichia coli K12 from a single colony in 4 L of Luria-Bertani (LB) broth at 35° C. and 250 rpm to an OD600 nm of 0.5. The cells were harvested by centrifugation at 7,000×g for 10 min. at 4° C. Cells were resuspended and washed in 50 mM potassium phosphate pH 7.5. […] The membrane proteins are washed twice with 10 mM sodium phosphate pH 7, resuspended in a volume of 5 mL, quantitated by BCA assay, adjusted to 10 μg/mL and frozen at −80° C. until use.
The adapted Bocillin FL competition binding assay described herein incorporates a 15 min. pre-incubation of test compound with isolated PBPs to attempt to balance the difference in mechanism of inhibition between beta-lactams (largely irreversible covalent bond to active site Serine) and the boron-containing PBP inhibitor test compounds (reversible covalent bond to active site Serine). […] The SDS-PAGE gel, post-electrophoresis, is then washed in water to remove excess SDS for 10 minutes at room temperature and placed on the scanning bed of a GE Healthcare/Amersham Biosciences Storm 860 fluorescence scanner. […]

E. coli PBP3 = target: T4, E. coli PBP3 (Escherichia coli, UniProt P0AD68); test: as above; details: 15 min. pre-incubation, membrane protein extracts, SDS-PAGE fluorescence scan
T4 construct: 100 μg's of total membrane protein extracts containing PBPs; endogenous in cells; host or cells: Escherichia coli K12 membrane fraction
T4 sequence (P0AD68 1-577): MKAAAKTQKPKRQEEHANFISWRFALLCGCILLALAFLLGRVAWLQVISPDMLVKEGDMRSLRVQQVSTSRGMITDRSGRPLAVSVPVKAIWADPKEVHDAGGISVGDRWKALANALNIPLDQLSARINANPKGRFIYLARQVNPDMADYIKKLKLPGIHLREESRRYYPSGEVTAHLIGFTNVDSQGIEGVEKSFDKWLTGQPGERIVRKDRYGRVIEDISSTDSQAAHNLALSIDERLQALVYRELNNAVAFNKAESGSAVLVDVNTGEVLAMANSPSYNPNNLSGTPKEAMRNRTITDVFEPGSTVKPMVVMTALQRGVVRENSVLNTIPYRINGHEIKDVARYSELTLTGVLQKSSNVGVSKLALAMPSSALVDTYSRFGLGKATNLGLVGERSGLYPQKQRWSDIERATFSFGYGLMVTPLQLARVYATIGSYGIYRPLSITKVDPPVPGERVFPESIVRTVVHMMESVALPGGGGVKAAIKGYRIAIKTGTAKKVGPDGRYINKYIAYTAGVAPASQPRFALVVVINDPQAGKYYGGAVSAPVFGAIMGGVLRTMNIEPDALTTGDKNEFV
Method: as §5
(§6) Penicillin binding proteins were isolated from Escherichia coli K12 by growth of Escherichia coli K12 from a single colony in 4 L of Luria-Bertani (LB) broth at 35° C. and 250 rpm to an OD600 nm of 0.5. The cells were harvested by centrifugation at 7,000×g for 10 min. at 4° C. Cells were resuspended and washed in 50 mM potassium phosphate pH 7.5. The cells were re-suspended in sonication buffer [50 mM Tris-HCl pH 7.5, 1 mM MgCl2, 1 mM beta-mercaptoethanol, and 5 μg/mL DNAse I] and sonicated by 4 passes of 30 seconds at 45 W on ice. The sample was clarified by centrifugation at 3,000×g to remove cell debris and unbroken cells and supernatant containing the membrane proteins was retained. The membrane proteins including the PBPs were further purified from soluble constituents by an ultracentrifugation step at 100,000×g for 30 min. at 4° C. The membrane proteins are washed twice with 10 mM sodium phosphate pH 7, resuspended in a volume of 5 mL, quantitated by BCA assay, adjusted to […] and frozen at −80° C. until use.
(§7) The adapted Bocillin FL competition binding assay described herein incorporates a 15 min. pre-incubation of test compound with isolated PBPs to attempt to balance the difference in mechanism of inhibition between beta-lactams (largely irreversible covalent bond to active site Serine) and the boron-containing PBP inhibitor test compounds (reversible covalent bond to active site Serine). Briefly, 50 μL reactions consisted of 100 μg's of total membrane protein extracts containing PBPs incubated with a dilution series of test compound ranging from 0.005 μg/mL to 2,480 μg/mL in 10 mM sodium phosphate pH7 containing 350 mM NaCl. Thirty minute reactions at 35° C. were initiated by addition of […] Bocillin FL, quenched by addition of SDS-PAGE loading buffer containing sodium dodecyl sulfate (SDS) and heated for 15 minutes at 95° C. to denature proteins in preparation for SDS-polyacrylamide gel electrophoresis. The Bocillin FL labeled PBPs are then separated by SDS-PAGE in Novex NuPage 10% Bis-Tris pre-cast gels (Invitrogen). The SDS-PAGE gel, post-electrophoresis, is then washed in water to remove excess SDS for 10 minutes at room temperature and placed on the scanning bed of a GE Healthcare/Amersham Biosciences Storm 860 fluorescence scanner. […] Effective PBP inhibitors are detected by a reduction in Bocillin FL labeling of the particular PBP over the dose range of test compound in a dose-responsive manner. […]

E. coli K12 PBP1a = target: T5, E. coli K12 PBP1a (Escherichia coli, UniProt P02918); test: as above; details: 15 min. pre-incubation, membrane protein extracts, SDS-PAGE fluorescence scan
T5 construct: 100 μg's of total membrane protein extracts containing PBPs; endogenous in cells; host or cells: Escherichia coli K12 membrane fraction
T5 sequence (P02918 whole entry): as the sequence (P02918 whole entry) above
Method: as §5, §6, §7

E. coli DH5α/pLBII = test: Broth microdilution MIC assay, empty vector control strain; format: cell-based; details: Escherichia coli, read-out: E. coli DH5α/pLBII Microbiological Activity (MIC)
Outline: as §3

[7] = PBP1a/PBP1b 0.1 μM, 96 at 20 μM, assay validation, read-out: EC50 (concentration of inhibitor required to reduce binding of 96 by 50%)

T1 sequence (P0AD68 1-577): as the sequence (P0AD68 1-577) above

SMILES	EC50 [1] [nM]	EC50 ([2]; 14C-labeled probe 96 at 20 μM, PBP 0.1 μM, read-out: E. coli K12 PBP1a EC50) [µM]	EC50 [2, 7] [µM]	EC50 ([3]; 14C-labeled probe 96 at 20 μM, PBP 0.1 μM, read-out: E. coli K12 PBP1b EC50) [µM]	EC50 [3, 7] [µM]	EC50 [4] [µM]	MIC [5] [µg/mL]	MIC (S. aureus ATCC 29213) [µg/mL]	MIC [6] [µg/mL]	E. coli PBP1b Potency (E. coli PBP1b)	E. coli PBP3 Potency (E. coli PBP3)	E. coliK12 PBP1a Potency (E. coli K12 PBP1a)	MIC (E. coli DH5α/pLBII) [µg/mL]
CC1(C)S[C@@H]2[C@H](NC(=O)[C@H](N)c3ccccc3)C(=O)N2[C@H]1C(=O)O [ampicillin, reference compound]	1400	< 10	< 0.5	< 10	< 0.5	< 10							
N[C@H](C(=O)N[C@H]1Cc2cccc(C(=O)O)c2OB1O)c1ccccc1 [Example 3, (R)-3-((S)-2-amino-2-phenylacetamido)-2-hydroxy-3,4-dihydro-2H-benzo[e][1,2]oxaborinine-8-carboxylic acid]							128 to 256	> 128	64 to 128	A (A represents a potency of >1000 μg/mL)	A (A represents a potency of >1000 μg/mL)	B (B represents a potency between 64 and 1000 μg/mL inclusive)	128 to 256
